Common to all, as to format: binding
Assay [1] has as its target T1, Fyn SH3 domain (Fyn SH3-GST fusion protein) (Homo sapiens, UniProt P06241).
T1 construct: The GST-SH3 fusion proteins, Fyn (85-139) and Lck (54-120); purchased Santa Cruz Biotechnology
The assay can be described thus: Determination of Kd values by equilibrium dialysis (fluorescence), Fyn SH3 domain. The conditions noted are these: for Kd: Fyn SH3 domain; for Selectivity among Src family SH3 domains (in words): Fyn versus other Src kinase family SH3 domains; for Enhancement in Fyn SH3 affinity relative to parent peptide 9: ratio of KD values versus acetylated derivative 9. The protocol: Determination of Kd Values. […] Therefore, the KD values for the SH3 complexes of these species were determined via equilibrium dialysis. All samples were prepared in buffer containing TBS and 1 mM DTT at pH 7.5. Slide-A-Lyzer dialysis slide cassette (0.1-0.5 mL capacity) was employed and contained 30 nM or 500 nM Fyn SH3-GST fusion proteins. The cassettes (400 μL final volume) were placed in a beaker containing a volume of buffer solution (TBS and 1 mM DTT at pH 7.5) that was at least 400-fold greater than that of the sample volume in the dialysis cassette. As a consequence, concentrations of non-SH3-bound peptide were held constant in the dialysis slide cassette over the course of the experiment. Equilibrium dialysis experiments were performed over a period of at least 16 hr and maintained at 4°C. Differences in the fluorescence between the solution in the slide cassette and that in the beaker were measured. The excitation wavelength employed for the peptides were 328 nm. Emission was monitored at 378 nm. The Kd values were calculated from the following equation for fluorescent peptides 8a, 11a, 14 and 7, where [E]t=total enzyme concentration; [E·L]=enzyme-peptide complex; [L]=free peptide concentration.
For non-fluorescent peptide 9, the following equation was used for the determination of Kd′:
Where Kd=the dissociation constant of competition fluorescent peptide, [L′]=total lion-fluorescent peptide concentration, [L]=total competitive fluorescent peptide concentration, [E]t=total SH3 domain concentration; [E·L]=enzyme-peptide (fluorescent competitive peptide) complex concentration.

The next assay has as its target T2, Lck SH3 domain (Homo sapiens, UniProt P06239).
T2 construct: The GST-SH3 fusion proteins, Fyn (85-139) and Lck (54-120); GST; purchased Santa Cruz Biotechnology
The assay can be described thus: Determination of Kd values by equilibrium dialysis (fluorescence), Lck SH3 domain. The conditions noted are these: read-out: Dissociation constant (KD), Lck.

In a further assay the target is Src SH3 domain (Homo sapiens, UniProt P12931). As to the kind of experiment: Determination of Kd values by equilibrium dialysis (fluorescence), Src SH3 domain. The conditions noted are these: read-out: Dissociation constant (KD), Src.
Another assay addresses T3, Hck SH3 domain (Homo sapiens, UniProt P08631).
T3 construct: particularly with respect to the SH3 domains from Lck and Hck
The assay can be described thus: Determination of Kd values by equilibrium dialysis (fluorescence), Hck SH3 domain. The conditions noted are these: read-out: Dissociation constant (KD), Hck.

The next assay addresses Yes SH3 domain (Homo sapiens, UniProt P07947). The assay can be described thus: Determination of Kd values by equilibrium dialysis (fluorescence), Yes SH3 domain. The conditions noted are these: read-out: Dissociation constant (KD), Yes.
For assay [2], the target named is T4, Fyn SH3-GST fusion protein (Homo sapiens, UniProt P06241).
T4 construct: The GST-SH3 fusion proteins, Fyn (85-139) and Lck (54-120); purchased Santa Cruz Biotechnology
T4 sequence (P06241 85-139): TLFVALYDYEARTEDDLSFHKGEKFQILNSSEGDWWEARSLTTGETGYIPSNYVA
The assay can be described thus: Competition ELISA against microwell-bound biotinylated peptoid 6. The conditions noted are these: competition with biotinylated peptoid 6, read-out: IC50 (relative affinity) in ELISA assay. As to the method: We employed Arg-Ala-Leu-Pro-Pro-Leu-Pro as the starting point for Fyn SH3 ligand optimization, a sequence that is consistent with most known SH3 domain-binding elements. We initially introduced diversity elements on the N-terminus of this peptide to furnish Library I (FIG. 2). The 720 individual members of this library were subsequently assessed for SH3 binding potency via an ELISA-based screen. The latter was performed in parallel using streptavidin-coated 96 well plates. A biotinylated-peptide SH3-directed ligand was appended to the individual wells and a GST-SH3 domain fusion protein was subsequently introduced. Competition between members of the library and the microwell-bound biotinylated peptide ligand determined the extent to which the GST-SH3 protein was retained by the individual wells after washing. The latter was quantified using an anti-GST-peroxidase fusion construct. The assay is dependent upon a strong binding interaction between the GST-SH3 domain and the biotinylated peptide ligand associated with the streptavidin-coated well. […]
Screening of the Peptide/Nonpeptide Conjugate Library. […] 100 μL of 1M sulfuric acid solution was introduced to stop the peroxidase reaction and absorbance was measured at 450 nm with a plate reader. […]

Setting [3] is: equilibrium dialysis, 4°C, pH 7.5, read-out: Dissociation constant (KD), Fyn.

Molecules are shown by their SMILES. Read-outs that look alike come from different tables or passages of the source. Where a SMILES comes first, the peptide text is derived from it. [ ]: non-standard residue; d: D form. The star is where a group is joined. FITC = O=C1OC2(c3ccc(O)cc3Oc3cc(O)ccc32)c2ccc(NC(=S)*)cc21; Benzoyl(2,3-diOH) = O=C(c1cccc(O)c1O)*; Nicotinoyl(2-OH) = O=C(c1cccnc1O)*; Nspe = C[C@H](NCC(=O)O)c1ccccc1; X1 = O=C([C@H](O)c1ccccc1)*; Dap = NC[C@H](N)C(=O)O; Ahx = NCCCCCC(=O)O

T2 sequence (P06239 54-120): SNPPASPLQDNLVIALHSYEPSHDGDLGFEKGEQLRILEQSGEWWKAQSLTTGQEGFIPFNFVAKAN
Sequence of Yes SH3 domain (P07947 91-152 limits assumed): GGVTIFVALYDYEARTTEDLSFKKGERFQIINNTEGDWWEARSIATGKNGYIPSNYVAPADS
T1 sequence (P06241 85-139): as the sequence (P06241 85-139) above
T3 sequence (P08631 78-138 limits assumed): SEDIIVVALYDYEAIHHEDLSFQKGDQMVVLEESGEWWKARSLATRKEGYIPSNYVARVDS

For `CC(C)C[C@H](NC(=O)[C@@H]1CCCN1C(=O)[C@@H]1CCCN1C(=O)[C@H](C)NC(=O)[C@H](Cc1ccc(O)cc1)NC(=O)CCCCCNC(=O)CCCCCNC(=S)Nc1ccc2c(c1)C(=O)OC21c2ccc(O)cc2Oc2cc(O)ccc21)C(=O)N(CC(=O)N1CCC[C@H]1C(=O)N[C@@H](CCCNC(=N)N)C(=O)N[C@@H](CC(N)=O)C(=O)N[C@@H](CCCNC(=N)N)C(=O)N1CCC[C@H]1C(=O)N[C@@H](CCCNC(=N)N)C(=O)N[C@@H](C)C(N)=O)[C@@H](C)c1ccccc1` [Ligand 7] ({FITC-Ahx-Ahx}-YAPPL[Nspe]PRNRPRA-NH2), the equilibrium dissociation constant (Kd) in assay [1] (values in nM, read-out: KD for the Fyn SH3 domain) worked out at 230 ± 30 nM. Moreover, in assay [1], the “Selectivity among Src family SH3 domains (in words)” value is “little selectivity versus other members of the Src kinase family”.
As to `CC(C)C[C@H](NC(=O)[C@@H]1CCCN1C(=O)[C@@H]1CCCN1C(=O)[C@H](CC(C)C)NC(=O)[C@H](CNC(=O)[C@H](O)c1ccccc1)NC(=O)[C@H](CCCNC(=N)N)NC(=O)c1cccnc1O)C(=O)N1CCC[C@H]1C(=O)N[C@@H](CNC(=O)c1cccc(O)c1O)C(N)=O` [Ligand 14] ({Nicotinoyl(2-OH)}-R[Dap](X1)LPPLP[Dap](Benzoyl(2,3-diOH))-NH2), the Kd at Lck SH3 domain was determined as 270 ± 30 nM; on Src SH3 domain, 230 ± 40 nM; in assay [1] (setting [3]) it was 25 ± 5 nM; at Hck SH3 domain it was 260 ± 30 nM; at Yes SH3 domain, 190 ± 20 nM. For the same compound, the “Selective affinity for Fyn versus SH3 domains from other Src kinase family members” value in assay [1] (Fyn versus Lck, Src, Yes, Hck SH3 domains) is listed as 10 fold.
On to `CC(C)C[C@H](NC(=O)[C@@H]1CCCN1C(=O)[C@@H]1CCCN1C(=O)[C@H](CC(C)C)NC(=O)[C@H](C)NC(=O)[C@H](CCCNC(=N)N)NC(=O)c1cccnc1O)C(=O)N1CCC[C@H]1C(=O)N[C@@H](CNC(=O)c1cccc(O)c1O)C(N)=O` [Ligand 11a] ({Nicotinoyl(2-OH)}-RALPPLP[Dap](Benzoyl(2,3-diOH))-NH2), for which the Kd at Lck SH3 domain was 590 ± 80 nM; at Src SH3 domain, 370 ± 50 nM; in assay [1] (setting [3]), 110 ± 30 nM; at Hck SH3 domain it was 620 ± 70 nM; at Yes SH3 domain it was 380 ± 140 nM. Further, the “Selectivity among Src family SH3 domains (in words)” value in assay [1] is “slight improvement in selectivity for the Fyn SH3 domain relative to Lck and Hck”. The “Enhancement in Fyn SH3 affinity relative to parent peptide 9” value in assay [1] is > 100 fold.
Regarding `CC(C)C[C@H](NC(=O)[C@@H]1CCCN1C(=O)[C@@H]1CCCN1C(=O)[C@H](CC(C)C)NC(=O)[C@H](C)NC(=O)[C@H](CCCNC(=N)N)NC(=O)c1cccnc1O)C(=O)N1CCC[C@H]1C(N)=O` [Ligand 8a] ({Nicotinoyl(2-OH)}-RALPPLP-NH2), the Kd stood at 5300 ± 400 nM at Lck SH3 domain; 2500 ± 200 nM at Src SH3 domain; 1200 ± 200 nM in assay [1] (setting [3]); 5100 ± 700 nM on Hck SH3 domain; 2700 ± 300 nM at Yes SH3 domain. Further, the concentration for half-maximal inhibition (IC50) in assay [2] amounted to 15000 nM. Besides, the “Selectivity among Src family SH3 domains (in words)” value in assay [1] is on record as “some selectivity in favor of Fyn”. Further, the “Enhancement in Fyn SH3 affinity relative to parent peptide 9” value in assay [1] was ~15 fold.

The values are drawn from patent US20100035823A1, “LIGANDS OF SH3 DOMAINS” (ALBERT EINSTEIN COLLEGE OF MEDICINE OF YESHIVA UNIVERSITY, priority 2005, published 2010).
